# Patent EP4610269A1, “UROKINASE PLASMINOGEN ACTIVATOR SURFACE RECEPTOR (UPAR) LIGANDS FOR DIAGNOSTIC OR THERAPEUTIC USE” (3B Pharmaceuticals GmbH, priority 2024, dated 2025)
# Like-named read-outs stand apart in the source and are kept apart here. *1 amine or outer side, *2 acyl side, *3 side chain or, on linkers, in order; H or OH if unused. Where a SMILES comes first, the peptide text is derived from it. Bridges are numbered along the chain shown (N, C = ends). Side-chain parts run from the residue outwards. [ ]: non-standard residue; d: D form. The star is where a group is joined. X12 = N=c1ccc2c(-c3ccc(C(=O)NCCCOCCOCCOCCCN*)cc3C(=O)O)c3ccc(N)c(S(=O)(=O)O)c3oc-2c1S(=O)(=O)O; DOTA(Lu) = O=C1CN2CCN3CCN(CC(=O)*)CCN(CC2)CC(=O)[O][Lu]([O]1)[O]C(=O)C3; X11 = O=C(CCCC[C@@H]1SC[C@@H]2NC(=O)N[C@@H]21)NCCCOCCOCCOCCCN*; DOTA = O=C(O)CN1CCN(CC(=O)O)CCN(CC(=O)*)CCN(CC(=O)O)CC1; Pro(cis-4-F) = O=C(O)[C@@H]1C[C@H](F)CN1; Dopa = N[C@@H](Cc1ccc(O)c(O)c1)C(=O)O; Hyp = O=C(O)[C@@H]1C[C@@H](O)CN1; Pentanoyl(4-Me) = CC(C)CCC(=O)*; X10 = CC(C)C[C@@H](C(=O)*)N(C)C; Cit = NC(=O)NCCC[C@H](N)C(=O)O; Butoxycarbonyl = CCCCOC(=O)*; NMeK = CN[C@@H](CCCCN)C(=O)O; Phg = N[C@H](C(=O)O)c1ccccc1; Suc = O=C(CCC(=O)[*:2])[*:1]; Nva = CCC[C@H](N)C(=O)O; Pentanoyl = CCCCC(=O)*; Ahx = NCCCCCC(=O)O; βAla = NCCC(=O)O; Sar = CNCC(=O)O
# Assays:
# [1] = target: T1, uPAR-expressing HEC-265 human endometrial adenocarcinoma cells (Homo sapiens, UniProt Q03405); test: Competitive FACS binding assay; conditions: pIC50 category of FACS binding
# T1 construct: Cell surface uPAR-expressing HEC-265 human endometrial adenocarcinoma cells; host or cells: HEC-265
# Method: In order to determine binding of compounds according to the present invention to uPAR-expressing cells, a competitive FACS binding assay was established.
# Cell surface uPAR-expressing HEC-265 human endometrial adenocarcinoma cells (Japanese Collection of Research Bioresources, #JCRB1142) were cultured in MEM Eagle with stable glutamine (Pan Biotech, #P04-09500) including 15% fetal bovine serum (Pan Biotech, #P30-3306) and 100 U/ml penicillin and 100 µg/mL streptomycin (Pan Biotech, #P06-07100). Cells were detached with Cell Dissociation Buffer (Thermo Scientific, #13151014) and washed in FACS buffer (PBS (Pan Biotech, #P04-36500) including 1% BSA (SeraCare, #AP-4510-80). Cells were diluted in FACS buffer to a final concentration of 500.000 cells per ml and 200 µl of the cell suspension are transferred to a u-shaped non-binding 96-well plate (Greiner Bio-One, #650901).
# For IC50 determination, cells were incubated with 10 nM Bio--Ttds--Ttds--Ttds--Ttds-D-Cha-FsrYLWS-NH2) in the presence of increasing concentrations of non-labeled test compounds at 4°C for 1 hour. Cells were washed twice in FACS buffer. An additional incubation step with 1 µg/mL APC-Streptavidin (Miltenyi; #130-106-791) in 50 µL FACS buffer for 30 minutes on ice was performed followed by two washes with FACS buffer. Cells were resuspended in 200 µl FACS buffer and analyzed in an Attune NxT flow cytometer. Median fluorescence intensities (APC channel) were calculated by Attune NxT software and plotted against peptide concentrations. Four parameter logistic (4PL) curve fitting and pIC50 calculations were performed using ActivityBase software.
# [2] = target: T2, human uPAR (uPAR-Fc) (Homo sapiens, UniProt Q03405); test: Surface plasmon resonance (SPR) assay, single cycle kinetics; type: binding
# T2 construct: comprising amino acids Leu23-Arg303 according to UniProt entry Q03405.1; purchased R&D Systems 10378-UK-100
# Method: Surface plasmon resonance (SPR) is an optical technique used to measure molecular interactions in real time. SPR occur when plane-polarized light hits a metal film under total internal reflection conditions. SPR signal is directly dependent on the refractive index of the medium on the sensor chip. In an SPR experiment, one molecule (i.e. uPAR) is immobilized on a sensor chip and binding to a second molecule (i.e. test compounds) is measured under flow. The binding of the compound on the surface changes the refractive index. In responses the reflection angle changes as compounds bind and dissociate on the immobilized protein on the surface. This response is measured in resonance units (RU). The RUs are proportional to the number of molecules bound to the surface. […] Kinetic binding constants and equilibrium binding constants can be derived from the sensorgrams.
# Surface plasmon resonance (SPR) studies were performed using a Biacore™ T200 or S200 SPR system (Cytiva, formerly GE Life Sciences) to assess binding of compounds to recombinant uPAR protein.
# In this example recombinant protein comprising the extracellular domains of human uPAR (uPAR-Fc, R&D Systems, CAT 10378-UK-100, comprising amino acids Leu23-Arg303 according to UniProt entry Q03405.1 and Fc region of human IgG1 at the C-terminus) was immobilized on a Protein A-Chip (Cytiva, CAT 29127555) according to the supplier's instructions. uPAR-Fc was diluted in Running Buffer (10 mM HEPES, 150 mM NaCl, 50 µM EDTA, 0.1% DMSO, 0.05% Tween-20, pH 7.4) to a final concentration of 100 nM and then flushed over the Protein A-Chip to immobilized ~2000 RUs.
# Stock solutions of test compounds were prepared by dissolving each compound in DMSO. DMSO stock solution were diluted 1: 1000 in Running Buffer without DMSO. Further sequential dilutions were made with Running Buffer containing 0.1% DMSO. SPR binding analyses were performed in Single Cycle Kinetic (SCK) mode at 25°C. Flow cell without immobilized uPAR-Fc served as reference flow cell. The chip was regenerated with 10 mM Glycine, pH 1,5 to remove the uPAR-Fc from the chip surface after each SCK run. After every three SCK measurements, a blank run with Running Buffer instead of test compound was included to correct for baseline drifts (double reference substraction method). Table 11: SPR protocol steps for SCK with uPAR-Fc immobilized on a Protein A-Chip.
# For each test compound, SPR raw data sensorgrams were recorded using the Biacore™ T200 or S200 control software. Sensorgrams were processed and analyzed with the Biacore™ Insight Evaluation software. […] The reference subtracted sensorgram for each test compound was further corrected for baseline drift by subtracting the sensorgram of a reference subtracted blank run (Running Buffer only). The dissociation constant (KD) was calculated from the double reference subtracted sensorgrams using the 1:1 Langmuir binding model. The pKD value (negative decadic logarithm of dissociation constant) was calculated using Microsoft Excel.
# [3] = pKD category for uPAR SPR activity assay, uPAR-Fc on Protein A-Chip, 25°C, read-out: pKD CAT (converted)
# [4] = pKD category for uPAR SPR activity assay, uPAR-Fc on Protein A-Chip, single cycle kinetics, 25°C, read-out: pKD CAT (converted)
# T2 sequence (Q03405 23-303): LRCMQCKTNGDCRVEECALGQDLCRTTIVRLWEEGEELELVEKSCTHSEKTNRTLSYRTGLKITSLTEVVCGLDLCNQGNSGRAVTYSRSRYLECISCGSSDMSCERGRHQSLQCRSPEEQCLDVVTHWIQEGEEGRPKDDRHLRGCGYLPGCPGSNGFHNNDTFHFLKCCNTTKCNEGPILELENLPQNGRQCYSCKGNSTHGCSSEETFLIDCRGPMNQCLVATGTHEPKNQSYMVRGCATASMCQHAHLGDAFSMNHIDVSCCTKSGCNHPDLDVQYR
# T1 sequence (Q03405 23-335): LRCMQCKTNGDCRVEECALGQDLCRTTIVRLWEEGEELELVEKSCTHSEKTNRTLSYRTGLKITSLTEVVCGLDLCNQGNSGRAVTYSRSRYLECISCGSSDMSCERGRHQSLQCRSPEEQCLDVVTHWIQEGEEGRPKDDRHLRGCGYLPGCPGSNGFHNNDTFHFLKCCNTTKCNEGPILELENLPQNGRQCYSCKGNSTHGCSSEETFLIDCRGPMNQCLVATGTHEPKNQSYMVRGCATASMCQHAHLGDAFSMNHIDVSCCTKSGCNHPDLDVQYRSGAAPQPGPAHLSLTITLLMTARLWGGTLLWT
Compound,"Kd [2, 3] [nM]",IC50 [1] [nM],other results
"CCCCOC(=O)N[C@H]1CSSC[C@@H](C(=O)NCCC(=O)O)NC(=O)[C@H](CCC)NC(=O)[C@H]([C@@H](C)CC)NC(=O)[C@@H]2C[C@@H](O)CN2C(=O)[C@@H]2C[C@H](F)CN2C(=O)[C@H](Cc2ccccc2)NC(=O)[C@H](Cc2ccc(O)cc2)NC(=O)[C@H](CCCCNC(=O)CN2CCN(CC(=O)O)CCN(CC(=O)O)CCN(CC(=O)O)CC2)NC(=O)[C@H]([C@@H](C)O)NC1=O [UPAR-127, Butoc-[Cys-Thr-Lys(DOTA)-Tyr-Phe-4Cfp-Hyp-Ile-Nva-Cys]-Bal-OH] (Butoxycarbonyl-CTK(DOTA)YF[Pro(cis-4-F)][Hyp]I[Nva]C[βAla]-OH; disulfide 1-10)",1.58 to 10,≤ 10,
"CCCCOC(=O)N[C@H]1CSSC[C@@H](C(N)=O)NC(=O)[C@H](CCC)NC(=O)[C@H]([C@@H](C)CC)NC(=O)[C@@H]2C[C@@H](O)CN2C(=O)[C@@H]2C[C@@H](O)CN2C(=O)[C@H](Cc2ccccc2)NC(=O)[C@H](Cc2ccc(O)cc2)NC(=O)[C@H](CCCCNC(=O)CN2CCN(CC(=O)O)CCN(CC(=O)O)CCN(CC(=O)O)CC2)NC(=O)[C@H]([C@@H](C)O)NC1=O [UPAR-128, Butoc-[Cys-Thr-Lys(DOTA)-Tyr-Phe-Hyp-Hyp-Ile-Nva-Cys]-NH2] (Butoxycarbonyl-CTK(DOTA)YF[Hyp][Hyp]I[Nva]C-NH2; disulfide 1-10)",< 1.58,≤ 10,
"CC[C@H](C)[C@@H]1NC(=O)[C@@H](C)NC(=O)[C@@H]2CCCN2C(=O)[C@H](Cc2ccccc2)NC(=O)[C@H](Cc2ccc(O)cc2)NC(=O)[C@H](CCC(N)=O)NC(=O)[C@@H](CCCCNC(=O)CN2CCN(CC(=O)O)CCN(CC(=O)O)CCN(CC(=O)O)CC2)NC(=O)[C@@H](NC(=O)CCC(C)C)CSSC[C@@H](C(N)=O)NC(=O)[C@H](CC(C)C)NC1=O [UPAR-130, iHex-[Cys-lys(DOTA)-Gln-Tyr-Phe-Pro-ala-Ile-Leu-Cys]-NH2] ({Pentanoyl(4-Me)}-C[dK](DOTA)QYFP[dA]ILC-NH2; disulfide 1-10)",> 100,≥ 126,
"CCCCOC(=O)N[C@H]1CSSC[C@@H](C(N)=O)NC(=O)[C@H](CCC)NC(=O)[C@H]([C@@H](C)CC)NC(=O)[C@@H]2C[C@@H](O)CN2C(=O)[C@@H]2C[C@H](F)CN2C(=O)[C@H](Cc2ccccc2)NC(=O)[C@H](Cc2ccc(O)c(O)c2)NC(=O)[C@H](CCCCNC(=O)CCC(=O)NCCCOCCOCCOCCCNC(=O)c2ccc(-c3c4ccc(=N)c(S(=O)(=O)O)c-4oc4c(S(=O)(=O)O)c(N)ccc34)c(C(=O)O)c2)NC(=O)[C@H]([C@@H](C)O)NC1=O [UPAR-479, Butoc-[Cys-Thr-Lys(AF488-Ttds)-Dopa-Phe-4Cfp-Hyp-Ile-Nva-Cys]-NH2] (Butoxycarbonyl-CTK([Suc-X12])[Dopa]F[Pro(cis-4-F)][Hyp]I[Nva]C-NH2; disulfide 1-10)",,,Kd [2]: < 1.58 nM
"CCC[C@@H]1NC(=O)[C@H]([C@@H](C)CC)NC(=O)[C@@H]2C[C@@H](O)CN2C(=O)[C@@H]2CCCN2C(=O)[C@H](Cc2ccccc2)NC(=O)[C@H](Cc2ccc(O)cc2)NC(=O)[C@H](CCC(N)=O)NC(=O)[C@H](CCCNC(=N)N)NC(=O)[C@@H](NC(=O)[C@@H](NC(C)=O)c2ccccc2)CSSC[C@@H](C(N)=O)NC1=O [UPAR-486, Ac-Phg-[Cys-Arg-Gln-Tyr-Phe-Pro-Hyp-Ile-Nva-Cys]-NH2] (Ac-[Phg]CRQYFP[Hyp]I[Nva]C-NH2; disulfide 2-11)",,,"Kd [2, 4]: < 1.58 nM"
"CCC[C@@H]1NC(=O)[C@H]([C@@H](C)CC)NC(=O)[C@@H]2C[C@@H](O)CN2C(=O)[C@@H]2CCCN2C(=O)[C@H](Cc2ccccc2)NC(=O)[C@H](Cc2ccc(O)cc2)NC(=O)[C@H](CCC(N)=O)NC(=O)[C@H](CCCNC(=N)N)NC(=O)[C@@H](NC(=O)[C@H](CC(C)C)N(C)C)CSSC[C@@H](C(N)=O)NC1=O [UPAR-487, Me-Nml-[Cys-Arg-Gln-Tyr-Phe-Pro-Hyp-Ile-Nva-Cys]-NH2] (X10-CRQYFP[Hyp]I[Nva]C-NH2; disulfide 1-10)",,,"Kd [2, 4]: 1.58 to 10 nM"
"CCC[C@@H]1NC(=O)[C@H]([C@@H](C)CC)NC(=O)[C@@H]2C[C@@H](O)CN2C(=O)[C@@H]2CCCN2C(=O)[C@H](Cc2ccccc2)NC(=O)[C@H](Cc2ccc(O)cc2)NC(=O)[C@H](CCC(N)=O)NC(=O)[C@H](CCCNC(=N)N)NC(=O)[C@@H](NC(=O)[C@H](Cc2ccccc2)NC(C)=O)CSSC[C@@H](C(N)=O)NC1=O [UPAR-488, Ac-Phe-[Cys-Arg-Gln-Tyr-Phe-Pro-Hyp-Ile-Nva-Cys]-NH2] (Ac-FCRQYFP[Hyp]I[Nva]C-NH2; disulfide 2-11)",,,"Kd [2, 4]: < 1.58 nM"
LuDOTA-Ahx-Leu-[Cys-Arg-Gln-Tyr-Phe-Pro-ala-Ile-Leu-Cys]-NH2 ({DOTA(Lu)}-[Ahx]LCRQYFP[dA]ILC-NH2; disulfide 3-12; not fully specified; printed as LuDOTA-Ahx-Leu-[Cys-Arg-Gln-Tyr-Phe-Pro-ala-Ile-Leu-Cys]-NH₂; also: Lu(III) complexed by DOTA) [UPAR-170],,,pIC50 CAT [1]: A (pIC50 values ≥8.0)
Pent-[Cys-Cit-Lys(LuDOTA)-Tyr-Phe-Pro-Nmg-Ile-Nva-Cys]-NH2 (Pentanoyl-C[Cit]K(DOTA(Lu))YFP[Sar]I[Nva]C-NH2; disulfide 1-10; not fully specified; also: Lu(III) complexed by DOTA) [UPAR-348],,,pIC50 CAT [1]: A (pIC50 values ≥8.0)

# Now from value to compound, other results behind:
"Kd [2, 3] [nM]",Compound,IC50 [1] [nM],other results
> 100,"CC[C@H](C)[C@@H]1NC(=O)[C@@H](C)NC(=O)[C@@H]2CCCN2C(=O)[C@H](Cc2ccccc2)NC(=O)[C@H](Cc2ccc(O)cc2)NC(=O)[C@H](CCC(N)=O)NC(=O)[C@H](CCCNC(N)=O)NC(=O)[C@@H](NC(=O)CCC(C)C)CSSC[C@@H](C(=O)O)NC(=O)[C@H](CC(C)C)NC1=O [UPAR-131, iHex-[Cys-Cit-Gln-Tyr-Phe-Pro-ala-Ile-Leu-Cys]-OH] ({Pentanoyl(4-Me)}-C[Cit]QYFP[dA]ILC-OH; disulfide 1-10)",≥ 126,
10 to 100,"CCCCC(=O)N[C@H]1CSSC[C@@H](C(N)=O)NC(=O)[C@H](CCC)NC(=O)[C@H]([C@@H](C)CC)NC(=O)[C@H](CCCCN)N(C)C(=O)[C@@H]2CCCN2C(=O)[C@H](Cc2ccccc2)NC(=O)[C@H](Cc2ccc(O)cc2)NC(=O)[C@H](CCCCNC(=O)CCC(=O)NCCCOCCOCCOCCCNC(=O)CCCC[C@@H]2SC[C@@H]3NC(=O)N[C@@H]32)NC(=O)[C@H](CCCNC(N)=O)NC1=O [UPAR-317, Pent-[Cys-Cit-Lys(Bio-Ttds)-Tyr-Phe-Pro-Nmk-Ile-Nva-Cys]-NH2] (Pentanoyl-C[Cit]K([Suc-X11])YFP[NMeK]I[Nva]C-NH2; disulfide 1-10)",,
